1 substance from PMC10425802 (Genes & Diseases, 2023) can be followed below.

Some targets named below: FGFR1 (Homo sapiens, UniProt P11362); FGFR2 (Homo sapiens, UniProt P21802); FGFR3 (Homo sapiens, UniProt P22607).
Test in all cases: mobility shift kinase assay
Holding throughout (format): biochemical

Chain of FGFR2 (P21802 22-821): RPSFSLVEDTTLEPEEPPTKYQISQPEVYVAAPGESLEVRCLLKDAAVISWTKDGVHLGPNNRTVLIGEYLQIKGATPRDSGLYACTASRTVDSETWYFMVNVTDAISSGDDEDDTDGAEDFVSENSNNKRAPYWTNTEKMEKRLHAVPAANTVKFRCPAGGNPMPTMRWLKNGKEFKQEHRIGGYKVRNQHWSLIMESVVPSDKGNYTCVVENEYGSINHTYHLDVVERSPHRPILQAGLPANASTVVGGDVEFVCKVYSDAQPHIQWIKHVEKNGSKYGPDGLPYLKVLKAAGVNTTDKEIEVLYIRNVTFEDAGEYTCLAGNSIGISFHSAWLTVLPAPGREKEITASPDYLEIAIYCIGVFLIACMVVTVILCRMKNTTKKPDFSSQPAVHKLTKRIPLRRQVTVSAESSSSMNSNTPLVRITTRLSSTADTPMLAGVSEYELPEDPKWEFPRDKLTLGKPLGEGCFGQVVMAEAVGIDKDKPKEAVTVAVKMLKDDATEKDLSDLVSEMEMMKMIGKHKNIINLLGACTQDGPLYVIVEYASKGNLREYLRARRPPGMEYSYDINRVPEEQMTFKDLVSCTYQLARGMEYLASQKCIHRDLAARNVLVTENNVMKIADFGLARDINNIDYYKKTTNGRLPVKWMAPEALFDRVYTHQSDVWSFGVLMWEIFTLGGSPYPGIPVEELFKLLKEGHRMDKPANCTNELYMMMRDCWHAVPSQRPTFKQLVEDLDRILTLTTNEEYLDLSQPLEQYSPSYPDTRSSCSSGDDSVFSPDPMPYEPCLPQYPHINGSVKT
Chain of FGFR3 (P22607 23-806): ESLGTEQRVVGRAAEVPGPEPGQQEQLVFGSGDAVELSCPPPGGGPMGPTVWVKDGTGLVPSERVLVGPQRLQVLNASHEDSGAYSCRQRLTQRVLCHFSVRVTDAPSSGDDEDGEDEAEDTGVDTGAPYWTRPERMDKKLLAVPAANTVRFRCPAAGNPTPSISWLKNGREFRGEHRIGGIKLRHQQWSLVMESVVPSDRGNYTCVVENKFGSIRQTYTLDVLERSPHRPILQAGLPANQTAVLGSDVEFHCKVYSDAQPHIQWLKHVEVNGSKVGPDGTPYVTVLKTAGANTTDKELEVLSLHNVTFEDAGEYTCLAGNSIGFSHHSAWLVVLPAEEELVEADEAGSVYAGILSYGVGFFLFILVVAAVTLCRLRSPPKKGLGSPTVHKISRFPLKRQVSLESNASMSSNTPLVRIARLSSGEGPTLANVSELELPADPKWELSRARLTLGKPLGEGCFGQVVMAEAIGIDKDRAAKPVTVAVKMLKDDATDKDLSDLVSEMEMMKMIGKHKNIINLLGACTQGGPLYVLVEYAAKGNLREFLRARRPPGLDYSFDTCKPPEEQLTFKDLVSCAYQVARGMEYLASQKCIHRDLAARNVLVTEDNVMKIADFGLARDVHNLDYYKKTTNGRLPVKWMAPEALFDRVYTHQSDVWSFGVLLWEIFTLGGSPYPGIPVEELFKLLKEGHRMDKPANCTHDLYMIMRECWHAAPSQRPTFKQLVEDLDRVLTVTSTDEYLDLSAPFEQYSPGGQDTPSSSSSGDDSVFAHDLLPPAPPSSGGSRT
Chain of FGFR1 (P11362 22-822): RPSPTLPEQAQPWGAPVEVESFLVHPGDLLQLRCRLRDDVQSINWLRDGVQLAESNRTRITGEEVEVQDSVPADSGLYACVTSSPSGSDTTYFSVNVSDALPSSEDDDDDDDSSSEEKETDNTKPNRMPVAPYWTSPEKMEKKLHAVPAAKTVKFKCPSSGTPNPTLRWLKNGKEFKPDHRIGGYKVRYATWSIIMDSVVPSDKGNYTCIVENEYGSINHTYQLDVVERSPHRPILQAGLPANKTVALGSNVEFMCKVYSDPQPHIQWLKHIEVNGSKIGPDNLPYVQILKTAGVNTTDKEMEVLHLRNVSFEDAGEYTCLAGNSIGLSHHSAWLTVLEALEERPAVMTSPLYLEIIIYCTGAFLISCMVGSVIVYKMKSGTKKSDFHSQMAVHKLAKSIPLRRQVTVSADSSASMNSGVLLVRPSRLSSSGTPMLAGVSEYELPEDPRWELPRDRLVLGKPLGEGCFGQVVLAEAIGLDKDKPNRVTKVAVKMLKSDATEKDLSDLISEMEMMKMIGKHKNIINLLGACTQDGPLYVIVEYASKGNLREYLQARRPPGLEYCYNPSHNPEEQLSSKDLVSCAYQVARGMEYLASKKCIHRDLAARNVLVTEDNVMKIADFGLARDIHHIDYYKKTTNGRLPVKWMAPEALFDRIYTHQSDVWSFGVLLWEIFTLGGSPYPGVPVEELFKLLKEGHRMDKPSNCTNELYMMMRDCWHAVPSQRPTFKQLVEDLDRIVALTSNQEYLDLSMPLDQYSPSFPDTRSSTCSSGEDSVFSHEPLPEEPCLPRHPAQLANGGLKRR

What is called IC50 is the concentration that gives 50% inhibition. On to CYY292, for which the IC50 amounted to 28 nM on FGFR1, 28 nM on FGFR2 and 78 nM at FGFR3.
